Assay results from US11174216B2, “Lipids that increase insulin sensitivity and methods of using the same” (Beth Israel Deaconess Medical Center, Inc., priority 2012, dated 2021).

Tests used:
isolated rat islets = assay: Insulin release studies in rat islets; type: cell-based; settings: 25 mM glucose in the media
Description: Ins1 cells (FIGS. 31A and 31B) or primary rat islet cells (FIG. 32A and FIG. 32B) were seeded in 24 well-plates [˜10^6 cells/well]. At confluence, cells were incubated with Low Serum [2.5%] and Low Glucose [2.5 mM] media for 12 hours. Next, cells were incubated with KRB buffer for 1 h and stimulated with glucose in the presence of 5-PAHSA (FIGS. 31a and 31B) or 9-PAHSA (FIG. 31B) for 45 min in KRB. At the end of the stimulation, 100 μL of media was collected and 10 μL was used to quantitate the amount of insulin released by ELISA. Treatment Conditions for FIGS. 31A, 31B and 32B were: • 5-PAHSA or 9-PAHSA [Stock]=20.0 mM [10.76 mg/mL Methanol] • A] 1 uM=0.3 uL/6 mL [Amount of methanol/mL=0.05 uL] • B] 5 uM=1.5 uL/6 mL [Amount of methanol/mL=0.25 uL] • C] 10 uM=3.0 uL/6 mL [Amount of methanol/mL=0.50 uL] • D] 20 uM=6.0 uL/6 mL [Amount of methanol/mL=1.00 uL] […]
Isolated rat islets were cultured overnight in RPMI 1640 medium containing 2.5 mM glucose and 2.5% fetal bovine serum supplemented with 100 IU/ml penicillin and 100 IU/ml streptomycin, 1 mM sodium pyruvate, and 10 mM HEPES (pH 7.4). […] At the end of the stimulation supernatant was collected and insulin released into the medium was quantified by ELISA as per manufacturer's protocol. The islets were lysed and protein content was measured and the amount of insulin released into the media was quantitated as ng/mL/μg of protein.

[1] = tested on: carboxyl ester lipase (CEL)
[2] = tested on: LPS-activated dendritic cells; assay: LPS-induced maturation/activation of bone marrow-derived dendritic cells; type: cell-based, mouse
Description: Mouse bone marrow cells were flushed from the femurs and tibiae. The red blood cells were eliminated and the cells plated at a density of 1.0×10^6 cells/mL in RBMI complete medium containing 10% FCS plus 20 ng/ml GM-CSF. The medium was replaced on day 4, and the cells were harvested on day 6 to obtain immature DCs. To obtain mature DCs, LPS was added to the cultures at a final concentration of 100 ng/mL on day 6, and the cells were cultured for an additional 24 h, as previously described by Macia, L., et al. Impairment of dendritic cell functionality and steady-state number in obese mice. J Immunol 177, 5997-6006 (2006), which is incorporated by reference in its entirety. […] The activation status of the BMDCs was evaluated by measuring the expression of MHCII and co-stimulatory molecules using Flow Cytometry and by the production of pro-inflammatory cytokines (IL-6, TNF, IL-12 and IL-1β) which was assessed by ELISA. […]
The immature dendritic cells obtained in the day 6 were maturated with LPS in the presence of different concentrations of 9-PAHSA varying between 100 ng/mL to 20 ug/mL. The cells were maturated for 24 h and the maturation status analyzed by cytokine production and co-stimulatory molecules expression.
The cells were analyzed by Multicolor Flow cytometry. […] The cells were analyzed with an LSR II flow cytometer (BD) and FlowJo software. […]

Compound	glucose-stimulated insulin secretion (isolated rat islets)	hydrolysis by HEK293T lysates transfected with CEL, AADACL1 or CES3 [1]	LPS-induced dendritic cell activation (expression of MHCII, CD40, CD80, CD86) ([2]; 100 ng/mL LPS, 24 h, flow cytometry)	IL-12 production ([2]; LPS-activated dendritic cells, ELISA)
CCCCCCCCCCCCCCCC(=O)OC(CCCCCCCCCCCCC)CCCC(=O)O (stereo not shown) [5-PAHSA]	potentiates glucose-stimulated insulin secretion			
CCCCCCCCCCCCCCCC(=O)OC(CCCCCCCCC)CCCCCCCC(=O)O (stereo not shown) [9-PAHSA, palmitoyl-9-hydroxystearic acid]		only CEL-transfected cell lysate was able to hydrolyze FAHFA above the level of background hydrolysis activity	prevents LPS-induced dendritic cell activation in a dose dependent manner	blocks IL-12 production
